Literature values in patent US20150150812A1, “CONTROLLED RELEASE FORMULATIONS WITH […]” (Egalet Ltd., priority 2009, published 2015).

Test system: postoperative patients

CN1CC[C@]23c4c5ccc(O)c4O[C@H]2[C@@H](O)C=C[C@H]3[C@H]1C5 [morphine]
Calculated mean (SD) MEAC (10 postoperative patients, Dahlström et al (1982)): 16 (9) ng/mL
Estimated MEAC (postoperative patients, patient-controlled analgesia, Graves et al (1985)): 20 to 40 ng/mL
